Results on one compound are retold here after patent US8940798B2, “Compounds useful for treating and/or preventing disease-associated bone loss” (Centre National de al Recherche Scientifique (CNRS), priority 2011, dated 2015).

In data set [1] the test system is osteoclasts (OCs). Nature of the data set: TRAP staining of OCs to ascertain absence of toxicity. The class given is cell-based. To be noted: 25 μM C21 vs DMSO (not shown). The source says: OCs were fixed and stained for DNA, actin or vinculin or TRAP as described (16,19).
To confirm the essential role of Rac1 activation by Dock5 in the resorption process, it was sought for a chemical inhibitor of Dock5 exchange activity active in cell cultures. The inventors therefore took advantage of a yeast-based assay that they have developed (BLANGY et al., Identification of TRIO-GEFD1 chemical inhibitors using the yeast exchange assay, 2006, Biol Cell 98(9):511-22 and BOUQUIER et al. A cell active chemical GEF inhibitor selectively targets the Trio/RhoG/Rac1 signaling pathway, 2009, Chem Biol 16(6):657-66.). They constructed a yeast strain where Rac1 activation by Dock5 DHR2 induces the expression of the his3 reporter gene (FIG. 5A), which leads to faster yeast growth in Histidine deprived medium (FIG. 5B). A library of 2,640 heterocyclic commercial chemical compounds as described previously was screened (BOUQUIER et al., see above) for molecules able to inhibit growth of Dock5 DHR2-expressing yeasts in Histidine deprived medium without affecting growth in Histidine complemented medium. C21: N-(3,5-dichlorophenyl)benzenesulfonamide was then identified (FIG. 5C). […] In parallel, control OCs grown in the presence of DMSO or 25 μM C21 were stained for TRAP to ascertain C21 was not toxic (not shown).

Data set [2] addresses T1, Dock5-DHR2 (Mus musculus, UniProt B2RY04).
T1 construct: Dock5 DHR2 domain (aminoacids E1119 to L1667) was cloned into pEGFP (Clontech) or myc tagged in pRs426Met (21); expressed in transfected cells; host or cells: HEK-293T cells
Nature of the data set: Yeast exchange assay screening for Dock5 inhibitors. The class given is cell-based. To be noted: screen of 2,640 compounds at 100 μM, 1% DMSO. The source says: FIGS. 5A-5H: Inhibition of bone resorption by an inhibitor of Rac1 activation by Dock5. (FIG. 5A) Principle of the yeast exchange assay used to identify inhibitors of Dock5 exchange activity. Wild type Rac1 is fused to LexA DNA binding domain (LexA) and its effector Kinectin (Kin) to GAL4 activation domain (GAD). Expression of Dock5-DHR2 activates Rac1, which binds to kinectin, leading to the expression of his3 and then yeast […] for histidine. Inhibitors of Dock5-DHR2 revert Rac1 activation. (FIG. 5B) Growth curves of yeasts expressing Rac1 and Kinectin with (open triangles) and without (dots) Dock5-DHR2, in medium complemented (plain lines) or not (dotted lines) with histidine. (FIG. 5C) Structure of N-(3,5-dichlorophenyl)benzensulfonamide (C21). (FIG. 5D) Western blots showing total and GTPbound Rac1 (upper panels) and GFP and GFP-fused Dock5-DHR2 in extracts of 293T cells treated for 1 hour with the indicated concentrations of C21 in the presence of 1% DMSO. (FIG. 5E) Western blots showing total and GTP-bound Rac1 (upper panels) and GFP and GFP-fused TrioN in extracts of 293T cells treated as in FIG. 5D. (FIG. 5F) Number of OCs (OC) after a 24-hour incubation with the indicated concentrations of C21, expressed as a % of DMSO control (0 μM C21). […] (FIG. 5G) CTx concentration in the medium of OCs on bone in the absence (O) or presence of 25 μM C21. […]

Data set [3] relates to B16F10 melanoma cells. Briefly: Bone metastasis model, B16F10 melanoma cells expressing luciferase in C57B1/6 mice. The data set is classed as in vivo, mouse. The settings on record: 15 mg/d/kg intraperitoneal every day for 12 days; measured at days 7, 10 and 12. The text has this: The metastatic tumor cells in the bone matrix produce factors that directly or indirectly stimulate osteoclast differentiation and bone resorbing activity. In return, by resorbing it, the osteoclasts liberate growth factors embedded within the bone matrix that will stimulate the proliferation of metastatic cells. […] C21 being an efficient inhibitor of bone resorption, it was further assayed for its ability to slow down metastatic cell proliferation within the bone marrow. B16-F10 cells are derived from a C57B1/6 mouse melanoma and have a strong tropism for the bone. They are classically used as a model for bone metastases.
19 C57B1/6 mice received an injection of 10^5 B16F10 melanoma cells expressing luciferase in the left ventricle, 9 mice received the C21 compound (test group), 15 mg/d/kg solubilized in 100 μl of 5% EtOH and 4% solutol, every days for 12 days, as an intraperitoneal injection, and the other 10 mice (control group) received 100 μl of 5% ethanol/4% solutol vehicle solution.
The proliferation of B16F10 cells was followed by their bioluminescence, measured at days 7, 10 and 12 after injection of the cells (FIG. 20).

T1 sequence (B2RY04 1119-1667): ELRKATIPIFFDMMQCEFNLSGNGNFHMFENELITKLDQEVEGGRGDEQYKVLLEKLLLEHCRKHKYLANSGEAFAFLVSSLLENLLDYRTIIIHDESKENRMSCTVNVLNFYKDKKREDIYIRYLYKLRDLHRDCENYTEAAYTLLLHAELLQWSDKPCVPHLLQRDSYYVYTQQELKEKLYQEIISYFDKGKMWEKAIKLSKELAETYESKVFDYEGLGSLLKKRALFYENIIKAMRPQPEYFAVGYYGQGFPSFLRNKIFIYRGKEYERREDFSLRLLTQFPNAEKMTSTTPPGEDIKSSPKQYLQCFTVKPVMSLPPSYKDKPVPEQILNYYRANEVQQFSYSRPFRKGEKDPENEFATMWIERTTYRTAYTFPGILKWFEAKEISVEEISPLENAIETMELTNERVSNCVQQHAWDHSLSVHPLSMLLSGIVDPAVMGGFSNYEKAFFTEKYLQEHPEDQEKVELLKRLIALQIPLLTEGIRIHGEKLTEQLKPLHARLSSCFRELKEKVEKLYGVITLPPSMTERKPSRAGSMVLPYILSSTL

For the compound `O=S(=O)(Nc1cc(Cl)cc(Cl)c1)c1ccccc1` [C21, N-(3,5-dichlorophenyl)benzenesulfonamide], the “Toxicity to OCs by TRAP staining” value in data set [1] was “not toxic”. For the same compound, in data set [2], the “Inhibition of growth of Dock5 DHR2-expressing yeasts in Histidine deprived medium without affecting growth in Histidine complemented medium” value is listed as “identified”. For the same compound, the “Proliferation of B16F10 cells, bioluminescence in the tibia” value in data set [3] is recorded as “markedly slowed down”.
